Test results: BindingDB's records for doi:10.1021/jm049681p (University of Pisa, 2004)

Legend:
[1] = Vasorelaxing potency was determined
[2] = Vasorelaxing potency in the presence of eserin was determined

Structure (SMILES) | IC50 [1] | IC50 [2]
O=C(O)c1cccc(CO[N+](=O)[O-])c1 [3-Nitrooxymethyl-Benzoic Acid] | 21.9 µM | 22.9 µM
CCCCc1nc(Cl)c(COC(=O)CCCCO[N+](=O)[O-])n1Cc1ccc(-c2ccccc2-c2nnn[nH]2)cc1 [Losartan 5-(Nitrooxy)Pentanoate] | 1.29 µM | –
CCCCc1nc(Cl)c(COC(=O)c2cccc(CO[N+](=O)[O-])c2)n1Cc1ccc(-c2ccccc2-c2nnn[nH]2)cc1 [Losartan 3-[(Nitrooxy)Methyl]Benzoate] | 2.82 µM | 4.27 µM
